Source: publication PMC11901818, “Salicylaldehyde Benzoylhydrazones with Anticancer Activity and Selectivity: Design, Synthesis, and In Vitro Evaluation” (Molecules, 2025)
Read-outs that look alike come from different tables or passages of the source.

Tests used:
[1] = system: BV-173 cells (bcr-abl+ chronic myeloid leukemia); experiment: Mosmann MTT cell viability test, BV-173; type: cell-based, human; settings: for IC50: Homo sapiens, BV-173, MTT, 72 h exposure, ± standard deviation; for Selectivity index (SI): IC50 HEK-293 / IC50 BV-173
Description: (§1) The anticancer activity of the dimethoxy hydrazone derivatives was tested against a panel of malignant human cell lines of different tissue origin and molecular characteristics, including several in vitro leukemia models (acute promyelocytic leukemia HL-60; bcr-abl+ chronic myeloid leukemia cell lines BV-173, K-562, and AR-230; and T-cell leukemia SKW-3), as well as the two major phenotypes of human breast adenocarcinoma (hormone-sensitive MCF-7 cells with high progesterone (PR) and estrogen receptor α (ERα) expression and triple-negative breast adenocarcinoma (TNBC) MDA-MB-231 lacking ERα, PR, and human epidermal growth factor receptor 2 (HER2)). The existence and degree of cancer selectivity of the tested compounds were evaluated against normal human embryonic kidney HEK-293 cells.
(§2) The spectrum of anti-tumor activity of the experimental compounds was assessed against human malignant cell lines of leukemic (HL-60, BV-173, K-562, AR-230, and SKW-3) and epithelial (MCF-7 and MDA-MB-231) origin, as well as normal human embryonic kidney cells (HEK-293). All cell lines were purchased from the German Collection of Microorganisms and Cell Cultures (DSMZ GmbH, Braunschweig, Germany), and cell cultures were maintained and grown in the appropriate medium specified by the provider and incubated under standard conditions of 37 °C and 5% humidified CO2 atmosphere.
(§3) The cytotoxicity assessment of the methoxysalicylaldehyde methoxybenzoylhydrazone series was performed using the Mosmann MTT method, a validated technique for evaluating cell viability. Cells in the exponential growth phase were harvested and seeded (100 µL/well) in 96-well plates at a suitable density (3 × 10^5 cells/well for suspension leukemic cultures and 1.5 × 10^5 cells/well for adherent epithelial cells). After a 24 h incubation period, the cells were treated with serial dilutions of the tested compounds within an appropriate concentration range. Following a 72 h exposure, an MTT substrate solution (5 mg/mL in PBS) was added to each well. After an additional 4 h incubation, purple insoluble formazan crystals formed. These crystals were then dissolved in an isopropyl alcohol solution containing 5% formic acid before measuring absorbance at 550 nm using a microplate reader Labexim LMR-1 (Vienna, Austria). The recorded absorbance values were blanked against MTT and isopropanol solution and normalized to the mean value of the untreated control (representing 100% cell viability). The experimental data were analyzed using non-linear regression analysis in GraphPad Prism® software 8.0 (San Diego, CA, USA), from which semi-logarithmic “dose–response” curves were constructed, and the half-inhibitory concentrations (IC50) of the tested compounds were calculated.

[2] = system: MCF-7 cells (breast ER+ adenocarcinoma); experiment: Mosmann MTT cell viability test, MCF-7; type: cell-based, human; settings: for IC50: Homo sapiens, MCF7, MCF-7, MTT, 72 h exposure, ± standard deviation; for Selectivity index (SI): IC50 HEK-293 / IC50 MCF-7
Description: as §1, §2, §3

[3] = system: all cancer cell lines (five leukemia, MCF-7, MDA-MB-231); experiment: MTT test, average over all cancer cell lines; type: cell-based, human; settings: Avg. all cancers
Description: (§4) The ligand efficiencies (LEs), obtained by the ratio between pIC50 and the number of heavy atoms in the molecule, along with the selectivity indices (SIs), calculated by comparing IC50 of normal cells to IC50 of cancer cells, are presented in Table 4.
as §2, §3

[4] = system: AR-230 cells (bcr-abl+ chronic myeloid leukemia); experiment: Mosmann MTT cell viability test, AR-230; type: cell-based, human; settings: for IC50: AR-230, MTT, 72 h exposure, ± standard deviation; for Selectivity index (SI): IC50 HEK-293 / IC50 AR-230
Description: as §1, §2, §3

[5] = system: leukemia cell lines (BV-173, K-562, SKW-3, AR-230, and HL-60); experiment: MTT test, average over leukemia cell lines; type: cell-based, human; settings: Avg. leukemia
Description: as §4, §2, §3

[6] = system: K-562 cells (bcr-abl+ chronic myeloid leukemia); experiment: Mosmann MTT cell viability test, K-562; type: cell-based, human; settings: for IC50: Homo sapiens, K562, K-562, MTT, 72 h exposure, ± standard deviation; for Selectivity index (SI): IC50 HEK-293 / IC50 K-562
Description: as §1, §2, §3

MDA-MB-231 cells (TNBC) = experiment: Mosmann MTT cell viability test, MDA-MB-231; type: cell-based, human; settings: for IC50: Homo sapiens, MDA-MB-231, MTT, 72 h exposure, ± standard deviation; for Selectivity index (SI): IC50 HEK-293 / IC50 MDA-MB-231
Description: as §1, §2, §3

[7] = system: normal human embryonic kidney cells, HEK-293; experiment: Mosmann MTT cell viability test, HEK-293 (selectivity); type: cell-based; settings: HEK293, HEK-293 normal cells, 72 h exposure, ± standard deviation
Description: as §1, §2, §3

[8] = system: HL-60 cells (acute promyelocytic leukemia); experiment: Mosmann MTT cell viability test, HL-60; type: cell-based, human; settings: for IC50: Homo sapiens, HL-60, MTT, 72 h exposure, ± standard deviation; for Selectivity index (SI): IC50 HEK-293 / IC50 HL-60
Description: as §1, §2, §3

[9] = system: SKW-3 cells (T-cell leukemia); experiment: Mosmann MTT cell viability test, SKW-3; type: cell-based, human; settings: for IC50: SKW-3, MTT, 72 h exposure, ± standard deviation; for Selectivity index (SI): IC50 HEK-293 / IC50 SKW-3
Description: as §1, §2, §3

[10] = system: breast cancer cell lines (MCF-7, MDA-MB-231); experiment: MTT test, average over breast cancer cell lines; type: cell-based, human; settings: Avg. breast cancer
Description: as §4, §2
The cytotoxicity assessment of the methoxysalicylaldehyde methoxybenzoylhydrazone series was performed using the Mosmann MTT method, a validated technique for evaluating cell viability. Cells in the exponential growth phase were harvested and seeded (100 µL/well) in 96-well plates at a suitable density (3 × 10^5 cells/well for suspension leukemic cultures and 1.5 × 10^5 cells/well for adherent epithelial cells). After a 24 h incubation period, the cells were treated with serial dilutions of the tested compounds within an appropriate concentration range. […] These crystals were then dissolved in an isopropyl alcohol solution containing 5% formic acid before measuring absorbance at 550 nm using a microplate reader Labexim LMR-1 (Vienna, Austria). The recorded absorbance values were blanked against MTT and isopropanol solution and normalized to the mean value of the untreated control (representing 100% cell viability). The experimental data were analyzed using non-linear regression analysis in GraphPad Prism® software 8.0 (San Diego, CA, USA), from which semi-logarithmic “dose–response” curves were constructed, and the half-inhibitory concentrations (IC50) of the tested compounds were calculated.

Row | IC50 [1] [µM] | IC50 [2] [µM] | IC50 ([4]; Homo sapiens, read-out: IC50) [µM] | IC50 [6] [µM] | IC50 (MDA-MB-231 cells (TNBC)) [µM] | IC50 [8] [µM] | IC50 ([9]; Homo sapiens, SKW3, 72 h) [µM] | IC50 [9] [µM] | IC50 [4] | Compound | Selectivity index (SI) [1] | Selectivity index (SI) [3] | Selectivity index (SI) [4] | Selectivity index (SI) [5] | Selectivity index (SI) [6] | IC50 [7] [µM] | Selectivity index (SI) [8] | Selectivity index (SI) [9] | Selectivity index (SI) [2] | Selectivity index (SI) (MDA-MB-231 cells (TNBC)) | Selectivity index (SI) [10]
1 | 1.4 ± 0.2 | 21.3 ± 1.9 | 1.1 ± 0.2 | 1.5 ± 0.1 | 60.1 ± 5 | 4.7 ± 0.5 | < 1 | 0.5 ± 0.1 | – | COc1ccc(C(=O)NN=Cc2ccc(OC)cc2O)cc1 [Compound 5, N′-(2-hydroxy-4-methoxybenzylidene)-4-methoxybenzohydrazide] | 7 | 7 | 9 | 9 | 7 | 10.4 ± 1.1 | 2 | 21 | – | – | –
2 | 33.5 ± 3.4 | 30.1 ± 3.2 | 50.5 ± 6.6 | 20.4 ± 2.9 | 22 ± 2.8 | 11.2 ± 2.1 | 4.3 ± 0.5 | – | – | COc1ccccc1C(=O)NN=Cc1cccc(OC)c1O [Compound 1, N′-(2-hydroxy-3-methoxybenzylidene)-2-methoxybenzohydrazide] | >3 | >7 | >2 | >8 | >5 | > 100 | >9 | >23 | >3 | >5 | >4
3 | 2.7 ± 0.2 | 25.6 ± 2.8 | 5.9 ± 0.7 | 2.1 ± 0.1 | 26.9 ± 3.3 | 3.6 ± 0.3 | 1.4 ± 0.1 | – | – | COc1cccc(C(=O)NN=Cc2cccc(OC)c2O)c1 [Compound 2, N′-(2-hydroxy-3-methoxybenzylidene)-3-methoxybenzohydrazide] | 6 | 5 | 3 | 7 | 8 | 16.8 ± 2.3 | 5 | 12 | 1 | 1 | 1
4 | 2.2 ± 0.3 | 23.3 ± 2.7 | 4.5 ± 0.4 | 1.6 ± 0.2 | 19.8 ± 3.1 | 2.1 ± 0.2 | < 1 | 0.8 ± 0.1 | – | COc1cccc(C(=O)NN=Cc2ccc(OC)cc2O)c1 [Compound 4, N′-(2-hydroxy-4-methoxybenzylidene)-3-methoxybenzohydrazide] | 4 | 4 | 2 | 5 | 5 | 8.6 ± 1.5 | 4 | 11 | – | – | –
5 | 2.7 ± 0.2 | 36.1 ± 4.4 | > 100 | 2.8 ± 0.4 | 23.5 ± 3.4 | 2.4 ± 0.1 | 2.7 ± 0.3 | – | not active | COc1ccc(C(=O)NN=Cc2cccc(OC)c2O)cc1 [Compound 3, N′-(2-hydroxy-3-methoxybenzylidene)-4-methoxybenzohydrazide] | >19 | >20 | >1 | >27 | >36 | > 100 | >42 | >37 | >3 | >4 | >4
